Reference: ChEMBL document CHEMBL1777795, “From benzimidazole to indole-5-carboxamide Thumb Pocket I inhibitors of HCV NS5B polymerase. Part 1: indole C-2 SAR and discovery of diamide derivatives with nanomolar potency in cell-based subgenomic replicons” (Bioorg Med Chem Lett, 2011)

Tests used:
[1] = AUC in Sprague-Dawley rat at 10 mg/kg, po; type: ADME, organism-based; design: dose 10 mg/kg, route oral; conditions: plasma
[2] = Cmax in Sprague-Dawley rat at 10 mg/kg, po; type: ADME, organism-based; design: dose 10 mg/kg, route oral; conditions: in vivo
[3] = Mean residence time in Sprague-Dawley rat at 10 mg/kg, po; type: ADME, organism-based; design: dose 10 mg/kg, route oral; conditions: in vivo
[4] = (§1) Permeability from apical to basolateral side of human Caco2 cells; type: ADME, cell-based, Caco-2; conditions: Caco-2, read-out: permeability
Caco-2 = assay: as §1; type: ADME, cell-based; conditions: caco-2, BLD = below limit of detection

| SMILES | Papp A→B [4] | also measured |
| --- | --- | --- |
| Cn1c(-c2ccoc2)c(C2CCCCC2)c2ccc(C(=O)NC(C)(C)C(=O)Nc3ccc(/C=C/C(=O)O)cc3)cc21 | 6 ×10⁻⁶ cm/s | – |
| Cn1c(-c2nccs2)c(C2CCCCC2)c2ccc(C(=O)NC(C)(C)C(=O)Nc3ccc(/C=C/C(=O)O)cc3)cc21 | 8.5 ×10⁻⁶ cm/s | – |
| Cn1c(-c2cnco2)c(C2CCCCC2)c2ccc(C(=O)NC(C)(C)C(=O)Nc3ccc(/C=C/C(=O)O)cc3)cc21 | 5 ×10⁻⁶ cm/s | – |
| Cn1c(-c2csc(-c3cccnc3)n2)c(C2CCCCC2)c2ccc(C(=O)NC(C)(C)C(=O)Nc3ccc(/C=C/C(=O)O)cc3)cc21 | 0.2 ×10⁻⁶ cm/s | – |
| Cn1c(-c2ccc3ncccc3c2)c(C2CCCCC2)c2ccc(C(=O)NC(C)(C)C(=O)Nc3ccc(/C=C/C(=O)O)cc3)cc21 | – | permeability (Caco-2): BLD |
| Cn1c(-c2cccc3cccnc23)c(C2CCCCC2)c2ccc(C(=O)NC(C)(C)C(=O)Nc3ccc(/C=C/C(=O)O)cc3)cc21 | 3.4 ×10⁻⁶ cm/s | – |
| Cn1c(-c2cccnc2)c(C2CCCCC2)c2ccc(C(=O)NC(C)(C)C(=O)Nc3ccc(/C=C/C(=O)O)cc3)cc21 | 9.4 ×10⁻⁶ cm/s | – |
| Cn1c(-c2ccncc2)c(C2CCCCC2)c2ccc(C(=O)NC(C)(C)C(=O)Nc3ccc(/C=C/C(=O)O)cc3)cc21 | 0.3 ×10⁻⁶ cm/s | – |
| Cc1ccc(-c2c(C3CCCCC3)c3ccc(C(=O)NC(C)(C)C(=O)Nc4ccc(/C=C/C(=O)O)cc4)cc3n2C)cn1 | 2.6 ×10⁻⁶ cm/s | – |
| Cn1c(-c2cncnc2)c(C2CCCCC2)c2ccc(C(=O)NC(C)(C)C(=O)Nc3ccc(/C=C/C(=O)O)cc3)cc21 | 3.3 ×10⁻⁶ cm/s | – |
| Cn1c(-c2cnccn2)c(C2CCCCC2)c2ccc(C(=O)NC(C)(C)C(=O)Nc3ccc(/C=C/C(=O)O)cc3)cc21 | 7 ×10⁻⁶ cm/s | – |

Further lines, with some results ahead:

| Papp A→B [4] | SMILES | also measured |
| --- | --- | --- |
| 16 ×10⁻⁶ cm/s | Cn1c(-c2ccccn2)c(C2CCCCC2)c2ccc(C(=O)NC(C)(C)C(=O)Nc3ccc(/C=C/C(=O)O)cc3)cc21 | AUC [1]: 0.87 µM·h; Cmax [2]: 1230 nM; MRT [3]: 0.5 h |
| 6.9 ×10⁻⁶ cm/s | Cc1cccc(-c2c(C3CCCCC3)c3ccc(C(=O)NC(C)(C)C(=O)Nc4ccc(/C=C/C(=O)O)cc4)cc3n2C)n1 | – |
| 16.4 ×10⁻⁶ cm/s | Cc1ccc(-c2c(C3CCCCC3)c3ccc(C(=O)NC(C)(C)C(=O)Nc4ccc(/C=C/C(=O)O)cc4)cc3n2C)nc1 | – |
| 1.5 ×10⁻⁶ cm/s | Cn1c(-c2cccc(N)n2)c(C2CCCCC2)c2ccc(C(=O)NC(C)(C)C(=O)Nc3ccc(/C=C/C(=O)O)cc3)cc21 | AUC [1]: 1.18 µM·h; Cmax [2]: 990 nM; MRT [3]: 3.4 h |
| 24 ×10⁻⁶ cm/s | COc1cccc(-c2c(C3CCCCC3)c3ccc(C(=O)NC(C)(C)C(=O)Nc4ccc(/C=C/C(=O)O)cc4)cc3n2C)n1 | – |
